One data set concerns S. pyogenes. Format: cell-based, Streptococcus pyogenes strain AP1. Particulars: positive control, 3 μM LL-37. The procedure:
(§1) Viable count assay Bacteria were grown to mid-logarithmic phase (OD620≈ 0.4) in THB-medium at 37° C. with 5% CO2. The bacterial solution was subsequently washed and adjusted to 2×10^9 cfu/ml in 10 mM Tris, pH 7.4, containing 5 mM glucose. S. pyogenes, S. aureus, E. coli or P. aeruginosa were then incubated with 2 μM of purified collagen type VI at 37° C. for 2 h. In some experiments S. pyogenes was incubated with recombinant collagen type VI fragments at various concentrations (0.125, 0.25, 0.5, 1.0 and 2.0 μM) for 2 h at 37° C. Bacteria incubated with Tris-HCl pH 7.4 buffer or 3 μM LL-37 (Innovagen, Lund, Sweden) were used as negative and positive controls respectively. To quantify the bactericidal activity, serial dilutions of the incubation mixtures were plated on blood agar plates, followed by incubation at 37° C. overnight, and the number of colony forming units (cfu) were determined. Hundred percent survival was defined as total survival of bacteria in the same buffer and under the same condition in the absence of collagen type VI or recombinant proteins.

A further data set deals with S. aureus. Format: cell-based, Staphylococcus aureus strain 111. Particulars: positive control, 3 μM LL-37. The procedure:
as §1

The subject of the next data set is E. coli. Format: cell-based, Escherichia coli strain 1351. Particulars: positive control, 3 μM LL-37. The procedure:
as §1

A further data set deals with P. aeruginosa. Format: cell-based, Pseudomonas aeruginosa PAO1. Particulars: positive control, 3 μM LL-37. The procedure:
as §1

Data set [1] in a line: Membrane permeabilization assay (carboxyfluorescein efflux from liposomes). Particulars: 10 mM Tris pH 7.4, 37° C., 45 min. The procedure:
Dry lipid films of E. coli polar lipid extract were formed in round-bottom flask walls by dissolving lipids in chloroform, followed by evaporation under N2-flow and subsequently placed in vacuum overnight. Lipid films were re-suspended either by 30 min stirring (E. coli), at 55° C. in an aqueous solution of 100 mM 5(6)-carboxyfluorescein in 10 mM Tris (set to pH 7.4 at 37° C.). Suspensions were then vortexed followed by repeated extrusion through a 100 nm polycarbonate membrane mounted in a LipoFast mini-extruder (Avanti Polar Lipids) in order to reduce multilamellar structures and polydispersity. Un-trapped carboxyfluorescein was removed by gel filtration on Sephadex PD-10 columns (GE Healthcare, Little Chalfont, UK). Membrane permeability was measured by monitoring carboxyfluorescein efflux from the liposomes to the external low concentration environment, resulting in loss of self-quenching and an increased fluorescence signal with excitation and emission wavelengths of 492 and 517 nm, respectively. Fluorescence was measured with a Varioskan Flash Multimode Reader (Thermo Fisher Scientific, Waltham, MA) in black Nunc Delta Surface 96-well plate (Thermo Fisher Scientific, Roskilde, DK). […] The effects of each peptide concentration on the liposome systems were monitored for 45 min, at which point the initial leakage had largely subsided. […]

Data set [2] relates to S. pyogenes, S. aureus, E. coli and P. aeruginosa. The data set can be described thus: Bactericidal assay (viable count), statements on the whole panel. Format: cell-based. Particulars: salt conditions (150 mM NaCl, pH 7.4). The procedure: Bacteria were grown to mid-logarithmic phase (OD620≈0.4) in THB medium at 37° C., with 5% CO2. The bacterial solution was subsequently washed and adjusted to 2×10^7 cfu/ml in salt buffer (10 mM Tris-HCl, 150 mM NaCl supplemented with 5 mM glucose; pH 7.4) (both from Sigma-Aldrich). Various concentrations of peptides (0.3, 0.6, 3, 6, 30 and 60 μM) were incubated with bacteria in salt buffer with or without 20% human plasma. Bacteria incubated in only salt buffer with or without plasma were used as negative controls. Samples with LL-37 served as positive controls. The samples were incubated for 2 h at 37° C. with 5% CO2. To quantify the bactericidal activity, serial dilutions of the incubation mixtures were plated on THB agar plates, followed by incubation at 37° C. with 5% CO2 overnight, and the number of cfu were determined. Experiments were performed in triplicate. Hundred percent survival was defined as total survival of bacteria in the same buffer and under the same condition in the absence of peptides.

Data set [3] concerns RAW 264.7 macrophage cells. Briefly: LPS stimulation of macrophages in vitro (nitrite, Griess reagent). Particulars: LPS 10 ng/ml pre-incubated with peptide, 24 h. Format: cell-based, murine. The procedure: Murine macrophage-like cells (RAW 264.7; ATCC) were seeded in 96-well plates at 3.5×10^5 cells/well in DMEM (without phenol red, PAA Laboratories) supplemented with 10% fetal calf serum and antibiotic-antimycotic (Invitrogen, Carlsbad, CA). After overnight incubation at 37° C., the cells were washed once with DMEM. LPS (10 ng/ml) was pre-incubated with the peptides for 20 min at room temperature and added to the cells. The cells were subsequently incubated for 24 h at 37° C. Griess reagent (Sigma, St. Louis, MO) was added to culture supernatant in 1:1 ratio followed by 15 min incubation in dark. The absorbance was then measured at 550 nm with a spectrophotometer. The cells with and without LPS stimulation were taken as positive and negative controls for LPS-induction. For the determination of NO production with peptides and LPS treatments, the assay was done in triplicate and the average values were considered for each set. Cells were grown at 37° C. and with 5% CO2 in fully humidified air.
Background: The Griess reaction detects nitrite, a stable product of nitric oxide.

In a further data set the test system is P. aeruginosa 15159. Briefly: Invasive P. aeruginosa infection model, survival. Format: in vivo, Female BALB/c mice. The procedure: Animal experiments were performed according to a protocol approved by the Local Ethics Committee at Lund University. Animals were housed under standard conditions of light and temperature and had free access to standard laboratory chow and water. P. aeruginosa 15159 bacteria were grown to mid-exponential phase (A620˜0.5), washed and diluted in PBS to 2×10^8 cfu/ml, and kept on ice until injection. Female BALB/c mice, 8 weeks old, were anesthetized with isoflurane and injected intraperitoneally with 100 μL of the bacterial solution, followed by injection of 100 μL SFV33 or GVR28 peptide (1 mg/mL) after 15 minutes, or with 100 μL PBS alone (control group).

Data set [4] deals with human monocytic THP-1 cells. Briefly: Lactate dehydrogenase (LDH) assay. Format: cell-based. Particulars: at 50 μM. The procedure:
The cytotoxicity experiments were performed as described previously (41). Briefly, human monocytic THP-1 cells (American Type Culture Collection (ATCC), Manassas, VA) were cultured into 96-well plates using Dulbecco's Modified Eagle's medium (DMEM) (PAA Laboratories) supplemented with 10% fetal calf serum. The medium was removed and the cells were subsequently washed with DMEM. Peptides (1, 5, 10, 20, 50 μM) diluted in DMEM were added in triplicates. The LDH based TOX-7 kit (Sigma-Aldrich) was used according to the manufacturer instructions. The amount of LDH release from dead cells was measured at 450 nm. As a positive control 2% Triton X-100 was used.

No end group written: not given here.

For `CC[C@H](C)[C@H](NC(=O)[C@H](CCCCN)NC(=O)[C@H](CCC(=O)O)NC(=O)[C@H](CCCCN)NC(=O)[C@H](CO)NC(=O)[C@H](CCCCN)NC(=O)[C@H](CCCNC(=N)N)NC(=O)[C@H](Cc1ccccc1)NC(=O)[C@H](Cc1ccccc1)NC(=O)[C@H](CC(=O)O)NC(=O)CNC(=O)[C@H](CC(C)C)NC(=O)[C@@H](N)CC(C)C)C(=O)NCC(=O)N[C@@H](CCCCN)C(=O)N[C@@H](CCC(=O)O)C(=O)N[C@@H](Cc1ccccc1)C(=O)N[C@@H](CCCCN)C(=O)N[C@@H](CCCNC(=N)N)C(=O)N[C@H](C(=O)N[C@H](C(=O)N[C@@H](CCC(N)=O)C(=O)N[C@@H](CCCNC(=N)N)C(=O)N[C@H](C(=O)N[C@@H](CCCCN)C(=O)N[C@@H](CC(=O)O)C(=O)N[C@@H](Cc1ccccc1)C(=O)N[C@@H](CC(C)C)C(=O)N[C@@H](CCCNC(=N)N)C(=O)N[C@@H](CC(N)=O)C(=O)N[C@@H](CC(C)C)C(=O)N[C@H](C(=O)N1CCC[C@H]1C(=O)N[C@@H](CCCNC(=N)N)C(=O)N[C@H](C(=O)N[C@@H](CCC(=O)O)C(=O)N[C@@H](CO)C(=O)O)[C@@H](C)O)C(C)C)[C@@H](C)CC)C(C)C)[C@@H](C)CC` [LL-37], the killing in the data set on S. pyogenes, in the data set with S. aureus, in the data set with E. coli and in the data set with P. aeruginosa was approximately 100% throughout.

Consider “FYLKTYRSQAPVLDAIRRLRLRGGS (FYL25 peptide) [peptide derived from VWA domain of collagen type VI α3-chain]”, for which the “membrane leakage (release of carboxyfluorescein)” value in [1] is recorded as “highest membrane leakage”.

For the compound “GVRPDGFAHIRDFVSRIVRRLNIGPSKV (GVR28 peptide) [peptide derived from VWA domain of collagen type VI α3-chain]”, in data set [2], the “antibacterial activity (viable count)” value is listed as “somewhat reduced effects”. Further, the LPS-induction of nitrite entry in data set [3] is “significantly suppressed the LPS-induction of nitrite”. For the same compound, the “survival compared with PBS group” value with P. aeruginosa 15159 (experiment terminated after 29 hours) is given as “prolonged survival”. Moreover, the “time at which 50% mortalities were observed” value in the data set with P. aeruginosa 15159 (mice infected i.p., single dose 100 μL peptide (1 mg/mL) 15 minutes after infection) was 24 h.

Turning to “SFVARNTFKRVRNGFLMRKVAVFFSNTPTRASP [SFV33]”, the “toxicity towards monocytes (LDH release)” value in data set [4] is on record as “exhibited toxicity”.

The values are drawn from patent publication US12134640B2, “Polypeptides and medical uses thereof” (priority 2016, dated 2024).
